Here are results for 2 compounds from article PMC5296932 (Angewandte Chemie (International ed. in English), 2016).

Data set [1] can be described thus: Proteolytic stability in human serum. Type of data set: in vitro ADME.
The nature of data set [2]: In vitro reduction of disulfide bonds by glutathione. Type of data set: physicochemical. As to conditions: 5 mM glutathione, 2 h.

Starred links: 1 amine or outer side, 2 acyl side, 3 side chain; linkers in the order of their positions; H or OH if unused. Positions of bridges follow the written chain, without caps; N, C: chain ends. Non-standard residues stand in square brackets, D forms with d. Residues, ends and D or L forms follow the SMILES beside them. X1 = O=C(c1cc(CS[*:2])cc(CS[*:3])c1)[*:1]; 2Nal = N[C@@H](Cc1ccc2ccccc2c1)C(=O)O; Mpa = O=C(O)CCS

As usually defined, the half-life is how long it takes for the measured level to halve. A low value points to fast loss. `CC(C)C[C@H](NC(=O)[C@H](C)NC(=O)[C@@H]1CSSCCC(=O)N[C@@H](CCCNC(=N)N)C(=O)N[C@@H](CCCNC(=N)N)C(=O)N[C@@H](CCCNC(=N)N)C(=O)N[C@@H](CCCNC(=N)N)C(=O)N[C@@H](Cc2ccc3ccccc3c2)C(=O)N[C@@H](Cc2ccccc2)C(=O)N1)C(=O)N[C@@H](CC(=O)O)C(=O)N[C@@H](Cc1c[nH]c2ccccc12)C(=O)N[C@@H](CO)C(=O)N[C@@H](Cc1c[nH]c2ccccc12)C(=O)N[C@@H](CC(C)C)C(=O)N[C@@H](CCC(N)=O)C(=O)N[C@H](C(N)=O)[C@@H](C)O` [Peptide 6] ([Mpa]RRRR[2Nal]FCALDWSWLQT-NH2; disulfide 1-8; C-terminus assumed) gave a half-life in data set [1] (human serum) of about 30 min.

`CC(C)C[C@@H]1NC(=O)[C@H](C)NC(=O)[C@@H]2CSSCc3cc(cc(c3)C(=O)N[C@@H](CCCNC(=N)N)C(=O)N[C@@H](CCCNC(=N)N)C(=O)N[C@@H](CCCNC(=N)N)C(=O)N[C@@H](CCCNC(=N)N)C(=O)N[C@@H](Cc3ccc4ccccc4c3)C(=O)N[C@@H](Cc3ccccc3)C(=O)N2)CSSC[C@@H](C(N)=O)NC(=O)[C@H](CCC(N)=O)NC(=O)[C@H](CC(C)C)NC(=O)[C@H](Cc2c[nH]c3ccccc23)NC(=O)[C@H](CO)NC(=O)[C@H](Cc2c[nH]c3ccccc23)NC(=O)[C@H](CC(=O)O)NC1=O` [Peptide 4] (RRRR[2Nal]FCALDWSWLQC-NH2; linker N-7-16 via X1): the “half-life in human serum” value in data set [1] is recorded as ~ 10 h. Further, the “reduction of the disulfide bonds” value in data set [2] is reported as “completely reduced”.
